Reference: paper PMC9114338 (Scientific Reports, 2022)
Where two headings read alike, the source gives them in different places.

Assay: Compartmental PK model, IV and SQ co-modeling
Assay type: in vivo, C57BL/6 J mice
Conditions: mouse
Description: The results of the simultaneous model (co-model) are summarized in Table 2, and the parameters were used in subsequent simulation exercises (vide infra).
The change in amount over time within each compartment was related to the difference in the input into the compartment (e.g., the Dose × F × Ka term into compartment C1) and the output from the compartment (e.g., the Concentration × Kout term for compartment Ccell). Two compartments –plus a dosing compartment– best described TFV plasma PKs.
A third compartment was used to model the PKs of PBMC TFV-DP concentrations. Intracellular PKs of TFV-DP were linked to the plasma TFV concentration via saturable uptake (Vmax and Km) with maximum velocity of uptake and first order elimination kinetics, Kout. […] C1 is the central compartment, representing the TFV plasma concentration in the body. The second compartment C2 represents the peripheral tissues, and the cellular compartment Ccell represents the concentrations of TFV-DP in PBMCs. Parameters CLp and Vp describe clearance and volume of the peripheral compartment (C2) and Ka and CL are the rates of TFV uptake and clearance into/out of the central compartment (C1), respectively. […] The physiological PBMC volume was assumed to be 7.55 × 10^–7 L/10^6 cells, to remain consistent with Duwal et al.[44] for the model analysis, while all other parameters were estimated in the model. The ordinary differential equations (Eqs. 1–3) used in the final model are presented below:1 d/dtC1t=F·Ka·Dt/V-C1t·CL/V-CLp/V·C1t+CLp/Vp·C2t 2 d/dtC2t=[…] 3 d/dtCcellt=Vmax·C1t/Km-Ccellt·Kout
Compartmental analyses were performed in Phoenix software (version 8.3, Certara, Princeton, NJ) using a published, simple, structural PK model describing the TFV kinetics. IV and SQ data were modeled simultaneously. Due to the destructive nature of the blood sampling, data were modeled using a naïve-pooled algorithm, without inter-animal variability. The resulting systemic parameters, along with the implant in vivo release rates on a per animal basis, were used to co-model (predict) concentration data in mice following during implant dosing.

- clearance (C57BL/6 J, plasma, other: intravenous and subcutaneous injection, co-modelled, 0.5 mg, IV and SQ co-modeling, read-out: CL, total body clearance (converted)): 4.48 mL/min
- half-life (C57BL/6 J, plasma, other: intravenous and subcutaneous injection, co-modelled, 0.5 mg, IV and SQ co-modeling, read-out: Elimination half-life t1/2, plasma TFV (converted)): 53 h
- Vd (C57BL/6 J, plasma, other: intravenous and subcutaneous injection, co-modelled, 0.5 mg, IV and SQ co-modeling, read-out: V, volume of distribution of the central compartment): 4.59 L
- half-life (C57BL/6 J, plasma, other: intravenous and subcutaneous injection, co-modelled, 0.5 mg, IV and SQ co-modeling, read-out: t1/2, elimination half-life, plasma TFV (converted)): 52.8 h
- Vmax/Km as share of the non-saturable clearance (in vivo): 2%
Compound: C[C@H](Cn1cnc2c(N)ncnc21)OCP(=O)(O)O [TFV, tenofovir]
